Assay results: US7846959B2, “Raf modulators and methods of use” (Exelixis, Inc., priority 2004, dated 2010)
pIC50: −log10 of the molar value. Like-named read-outs stand apart in the source and are kept apart here.

Tests used:
c-Raf = c-Raf (Homo sapiens, UniProt P04049); test: Luciferase-coupled chemiluminescence kinase assay (ATP consumption), c-Raf; assay type: biochemical; conditions: read-out: cRaf-1 IC50
Method: (§1) Tyrosine kinase activity is determined by 1) measurement of kinase-dependent ATP consumption by in the presence of a generic substrate such as […], tyrosine (pEY), by luciferase/luciferin-mediated chemiluminescence or; 2) incorporation of radioactive phosphate derived from ^33P-ATP into a generic substrate which has been adsorbed onto the well surface of polystyrene microtiter plates. Phosphorylated substrate products are quantified by scintillation spectrometry.
(§2) Luciferase-Coupled Chemiluminescence Assay Protocol
(§3) Kinase activity is measured as the percent of ATP consumed following the kinase reaction using luciferase-luciferin-coupled chemiluminescence. Reactions were conducted in 384-well white, medium binding microtiter plates (Greiner). Kinase reactions were initiated by combining test compounds, ATP and kinase in a 20 uL volume. The reaction mixture was incubated at ambient temperature for 3 hrs. For c-Raf, B-Raf, and B-RafV599E, […] of the enzyme was pre-incubated with compound in 20 mM Tris pH 7.5, 10 mM MgCl2, 0.03% TX-100, and 1 mM DTT for 30 minutes at room temperature. Following the kinase reaction, a 20 μL aliquot of luciferase-luciferin mix was added and the chemiluminescence signal measured using a Victor^2 plate reader (Perkin Elmer). The luciferase-luciferin mix contained 50 mM HEPES, pH 7.8, 67 mM oxalic acid (pH 7.8), 5 (or 50) mM DTT, 0.4% Triton X-100, 0.25 mg/mL coenzyme A, 63 μM AMP, 28 μg/mL luciferin and 40,000 units/mL luciferase. Total ATP consumption was limited to 25-60% and the IC50 values correlate well with those determined by radiometric assays.

B-Raf = B-Raf (Homo sapiens, UniProt P15056); test: Luciferase-coupled chemiluminescence kinase assay (ATP consumption), B-Raf; assay type: biochemical
B-Raf, sequence (P15056 whole entry): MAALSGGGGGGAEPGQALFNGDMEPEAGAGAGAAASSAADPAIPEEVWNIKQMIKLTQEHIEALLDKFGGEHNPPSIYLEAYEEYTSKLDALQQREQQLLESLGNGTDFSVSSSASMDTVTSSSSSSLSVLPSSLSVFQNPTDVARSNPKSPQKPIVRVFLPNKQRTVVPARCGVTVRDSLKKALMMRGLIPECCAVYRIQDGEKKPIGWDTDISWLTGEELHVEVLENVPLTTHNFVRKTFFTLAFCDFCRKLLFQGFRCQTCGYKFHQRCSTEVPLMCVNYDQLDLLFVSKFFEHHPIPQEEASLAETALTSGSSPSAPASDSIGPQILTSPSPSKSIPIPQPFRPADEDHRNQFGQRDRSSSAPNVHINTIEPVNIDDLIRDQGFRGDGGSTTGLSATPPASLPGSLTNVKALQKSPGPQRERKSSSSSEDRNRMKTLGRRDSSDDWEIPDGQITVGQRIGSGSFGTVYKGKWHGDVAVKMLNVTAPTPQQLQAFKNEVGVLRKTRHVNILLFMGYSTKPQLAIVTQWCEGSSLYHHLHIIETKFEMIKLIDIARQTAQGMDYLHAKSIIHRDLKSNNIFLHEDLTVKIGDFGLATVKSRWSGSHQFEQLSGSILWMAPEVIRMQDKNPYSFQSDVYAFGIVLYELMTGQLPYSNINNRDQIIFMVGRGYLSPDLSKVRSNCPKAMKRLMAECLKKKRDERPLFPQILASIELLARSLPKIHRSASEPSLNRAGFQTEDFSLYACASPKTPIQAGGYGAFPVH
Method: as §1, §2, §3

[1] = read-out: bRaf (inhibition indicated as IC50)

c-Raf, sequence (P04049 whole entry): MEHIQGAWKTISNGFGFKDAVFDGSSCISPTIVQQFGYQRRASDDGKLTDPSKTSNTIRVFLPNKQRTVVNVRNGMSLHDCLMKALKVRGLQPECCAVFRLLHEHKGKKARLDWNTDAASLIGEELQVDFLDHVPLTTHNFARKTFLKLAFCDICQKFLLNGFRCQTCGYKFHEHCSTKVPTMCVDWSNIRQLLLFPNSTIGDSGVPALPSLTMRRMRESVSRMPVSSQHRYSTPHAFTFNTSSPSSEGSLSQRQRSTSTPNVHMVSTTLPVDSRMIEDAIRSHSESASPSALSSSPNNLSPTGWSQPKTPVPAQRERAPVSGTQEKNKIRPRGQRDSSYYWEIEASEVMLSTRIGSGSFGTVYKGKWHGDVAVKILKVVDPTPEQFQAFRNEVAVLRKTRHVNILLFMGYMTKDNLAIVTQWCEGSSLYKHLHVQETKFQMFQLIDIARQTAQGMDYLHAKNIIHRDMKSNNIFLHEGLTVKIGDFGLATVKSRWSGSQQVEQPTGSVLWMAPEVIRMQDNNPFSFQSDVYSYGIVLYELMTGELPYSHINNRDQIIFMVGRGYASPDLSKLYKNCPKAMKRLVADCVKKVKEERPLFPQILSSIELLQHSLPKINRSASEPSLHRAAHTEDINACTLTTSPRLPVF

SMILES	pIC50 (c-Raf)	pIC50 (B-Raf; read-out: bRaf IC50)	pIC50 (B-Raf; [1])
O=C1COc2ccc(C3(O)c4ccccc4C(=O)N3Cc3ccccc3Cl)cc2N1 (stereo not shown) [Entry 35, 6-{2-[(2-chlorophenyl)methyl]-1-hydroxy-3-oxo-2,3-dihydro-1H-isoindol-1-yl}-2H-1,4-benzoxazin-3(4H)-one]	5.00 to 6.00	≤ 5.00	
O=C1COc2ccc(C3(O)c4ccccc4C(=O)N3Cc3cccc(F)c3)cc2N1 (stereo not shown) [Entry 36, 6-{2-[(3-fluorophenyl)methyl]-1-hydroxy-3-oxo-2,3-dihydro-1H-isoindol-1-yl}-2H-1,4-benzoxazin-3(4H)-one]	5.00 to 6.00	5.00 to 6.00	
O=C1COc2ccc(C3(O)c4ccccc4C(=O)N3Cc3ccccc3Br)cc2N1 (stereo not shown) [Entry 37, 6-{2-[(2-bromophenyl)methyl]-1-hydroxy-3-oxo-2,3-dihydro-1H-isoindol-1-yl}-2H-1,4-benzoxazin-3(4H)-one]	≤ 5.00	≤ 5.00	
O=C1COc2ccc(C3(O)c4ccccc4C(=O)N3Cc3ccccc3F)cc2N1 (stereo not shown) [Entry 38, 6-{2-[(2-fluorophenyl)methyl]-1-hydroxy-3-oxo-2,3-dihydro-1H-isoindol-1-yl}-2H-1,4-benzoxazin-3(4H)-one]	5.00 to 6.00	≤ 5.00	
O=C1COc2ccc(C3(O)c4ccccc4C(=O)N3c3cccc(F)c3)cc2N1 (stereo not shown) [Entry 39, 6-[2-(3-fluorophenyl)-1-hydroxy-3-oxo-2,3-dihydro-1H-isoindol-1-yl]-2H-1,4-benzoxazin-3(4H)-one]	6.00 to 7.00	5.00 to 6.00	
O=C1COc2ccc(C3(O)c4ccccc4C(=O)N3c3cccc(I)c3)cc2N1 (stereo not shown) [Entry 40, 6-[1-hydroxy-2-(3-iodophenyl)-3-oxo-2,3-dihydro-1H-isoindol-1-yl]-2H-1,4-benzoxazin-3(4H)-one]	> 7.00	6.00 to 7.00	
O=C1COc2ccc(C3(O)c4ccccc4C(=O)N3c3cccc(Br)c3)cc2N1 (stereo not shown) [Entry 41, 6-[2-(3-bromophenyl)-1-hydroxy-3-oxo-2,3-dihydro-1H-isoindol-1-yl]-2H-1,4-benzoxazin-3(4H)-one]	> 7.00	6.00 to 7.00	
O=C1COc2ccc(C3(O)c4ccccc4C(=O)N3c3cccc([N+](=O)[O-])c3)cc2N1 (stereo not shown) [Entry 42, 6-[1-hydroxy-2-(3-nitrophenyl)-3-oxo-2,3-dihydro-1H-isoindol-1-yl]-2H-1,4-benzoxazin-3(4H)-one]	6.00 to 7.00	5.00 to 6.00	
COc1cccc(N2C(=O)c3ccccc3C2(O)c2ccc3c(c2)NC(=O)CO3)c1 (stereo not shown) [Entry 43, 6-{1-hydroxy-2-[3-(methyloxy)phenyl]-3-oxo-2,3-dihydro-1H-isoindol-1-yl}-2H-1,4-benzoxazin-3(4H)-one]	6.00 to 7.00	6.00 to 7.00	
Cc1cccc(N2C(=O)c3ccccc3C2(O)c2ccc3c(c2)NC(=O)CO3)c1 (stereo not shown) [Entry 44, 6-[1-hydroxy-2-(3-methylphenyl)-3-oxo-2,3-dihydro-1H-isoindol-1-yl]-2H-1,4-benzoxazin-3(4H)-one]	6.00 to 7.00	6.00 to 7.00	
Nc1ccccc1N1C(=O)c2ccccc2C1(O)c1ccc2c(c1)NC(=O)CO2 (stereo not shown) [Entry 47, 6-[2-(2-aminophenyl)-1-hydroxy-3-oxo-2,3-dihydro-1H-isoindol-1-yl]-2H-1,4-benzoxazin-3(4H)-one]	6.00 to 7.00	6.00 to 7.00	
O=C1COc2ccc(C(=O)c3ccccc3-c3nc(-c4ccccc4)no3)cc2N1 [Entry 48, 6-{[2-(3-phenyl-1,2,4-oxadiazol-5-yl)phenyl]carbonyl}-2H-1,4-benzoxazin-3(4H)-one]	≤ 5.00	≤ 5.00	
O=C1COc2ccc(C(=O)c3ccccc3-c3nc4ccccc4[nH]3)cc2N1 [Entry 49, 6-{[2-(1H-benzimidazol-2-yl)phenyl]carbonyl}-2H-1,4-benzoxazin-3(4H)-one]	≤ 5.00	≤ 5.00	
O=C1COc2ccc(C3(O)c4ccccc4C(=O)N3Cc3ccccc3C(F)(F)F)cc2N1 (stereo not shown) [Entry 50, 6-(1-hydroxy-3-oxo-2-{[2-(trifluoromethyl)phenyl]methyl}-2,3-dihydro-1H-isoindol-1-yl)-2H-1,4-benzoxazin-3(4H)-one]	≤ 5.00	≤ 5.00	
COC(=O)Nc1nc2ccc(C(=O)c3ccccc3C(=O)Nc3cccc(C)c3)cc2[nH]1 [Entry 393, methyl {6-[(2-{[(3-methylphenyl)amino]carbonyl}phenyl)carbonyl]-1H-benzimidazol-2-yl}carbamate]			> 7.00
COC(=O)Nc1nc2ccc(C(=O)c3ccccc3C(=O)Nc3cccc(F)c3)cc2[nH]1 [Entry 396, methyl {6-[(2-{[(3-fluorophenyl)amino]carbonyl}phenyl)carbonyl]-1H-benzimidazol-2-yl}carbamate]			> 7.00
CCc1cccc(NC(=O)c2ccccc2C(=O)c2ccc3nc(NC(=O)OC)[nH]c3c2)c1 [Entry 399, methyl {6-[(2-{[(3-ethylphenyl)amino]carbonyl}phenyl)carbonyl]-1H-benzimidazol-2-yl}carbamate]			> 7.00
C#Cc1cccc(NC(=O)c2ccccc2C(=O)c2ccc3nc(NC(=O)OC)[nH]c3c2)c1 [Entry 400, methyl {6-[(2-{[(3-ethynylphenyl)amino]carbonyl}phenyl)carbonyl]-1H-benzimidazol-2-yl}carbamate]			> 7.00
COC(=O)Nc1nc2ccc(C(=O)c3ccccc3C(=O)Nc3cccc(I)c3)cc2[nH]1 [Entry 403, methyl {6-[(2-{[(3-iodophenyl)amino]carbonyl}phenyl)carbonyl]-1H-benzimidazol-2-yl}carbamate]			> 7.00
COC(=O)Nc1nc2ccc(C(=O)c3ccccc3C(=O)Nc3cccc(C(C)C)c3)cc2[nH]1 [Entry 404, methyl (6-{[2-({[3-(1-methylethyl)phenyl]amino}carbonyl)phenyl]carbonyl}-1H-benzimidazol-2-yl)carbamate]			> 7.00
COC(=O)Nc1nc2ccc(C(=O)c3ccccc3C(=O)NCc3ccsc3)cc2[nH]1 [Entry 405, methyl {6-[(2-{[(3-thienylmethyl)amino]carbonyl}phenyl)carbonyl]-1H-benzimidazol-2-yl}carbamate]			> 7.00
COC(=O)Nc1nc2ccc(C(=O)c3ccccc3C(=O)Nc3cc(Br)ccc3F)cc2[nH]1 [Entry 409, methyl {6-[(2-{[(5-bromo-2-fluorophenyl)amino]carbonyl}phenyl)carbonyl]-1H-benzimidazol-2-yl}carbamate]			> 7.00
COC(=O)Nc1nc2ccc(C(=O)c3ccccc3C(=O)Nc3cccc(Br)c3F)cc2[nH]1 [Entry 412, methyl {6-[(2-{[(3-bromo-2-fluorophenyl)amino]carbonyl}phenyl)carbonyl]-1H-benzimidazol-2-yl}carbamate]			> 7.00
COC(=O)Nc1nc2ccc(C(=O)c3ccccc3C(=O)Nc3cc(Cl)ccc3C)cc2[nH]1 [Entry 415, methyl {6-[(2-{[(5-chloro-2-methylphenyl)amino]carbonyl}phenyl)carbonyl]-1H-benzimidazol-2-yl}carbamate]			> 7.00
COC(=O)Nc1nc2ccc(C(=O)c3ccccc3C(=O)Nc3cc(Br)ccc3C)cc2[nH]1 [Entry 416, methyl {6-[(2-{[(5-bromo-2-methylphenyl)amino]carbonyl}phenyl)carbonyl]-1H-benzimidazol-2-yl}carbamate]			> 7.00
COC(=O)Nc1nc2ccc(C(=O)c3ccccc3C(=O)Nc3cccc(I)c3F)cc2[nH]1 [Entry 417, methyl {6-[(2-{[(2-fluoro-3-iodophenyl)amino]carbonyl}phenyl)carbonyl]-1H-benzimidazol-2-yl}carbamate]			> 7.00
